Tests used:
[1] = test system: SKOV3-TRip2 and SKOV3-ip1 cells; test: Cell uptake of radiotracer, drug-resistant vs drug-sensitive SKOV3 cells; format: cell-based, human
Method: For cell uptake studies SKOV3-ip1 and SKOV3-TRip2, A549-WT, A549-KO-ALDH1A1, HEK293-WT and HEK293-ALDH1A1 cells were plated in 6 well plates 24 h prior to the studies, as described above (Western Blotting). One mL of fresh media containing 0.37 MBq of PQM-H-001 and 6 KBq PQM-H-002 was added to each well for the desired incubation time. At 40 min, plates were placed on ice, washed three times with ice-cold PBS to remove exogenous radioactivity and lysed in RIPA buffer ([…]; Fisher Scientific Ltd).
For all cell uptake and efflux study decay-corrected radioactivity in lysates was determined on a gamma counter ([…]; Wallac 1282 CompuGamma counter), with the remaining cell lysate centrifuged (21,000×g for 10 min at 4° C.) and the supernatant used to determine protein concentration following radioactive decay using a Pierce BCA assay. To quantify radiotracer uptake in cells, three standard solutions of the radioactivity-containing medium were counted on the gamma counter. Data were expressed as a percentage of total radioactivity administered to cells per mg of protein.
Next, the time-dependent uptake of the of the radiotracers PQM-H-001 ([^18F]PQM-H-001) and PQM-H-002 ([^125I]PQM-H-002) was profiled in drug-resistant SKOV3-Trip2 and drug-sensitive SKOV3-ip1 cell lines (Pereira, R., et al. 2019).

Ex vivo biodistribution = format: in vivo, BALB/c-nu/nu mice; details: 90 min post radiotracer injection
Method: PQM-H-001 distribution was further evaluated ex vivo 90 min post radiotracer injection. […] Ex-vivo distribution of PQM-H-001 was performed after PET imaging (section: In Vivo Tumour Model and PET Imaging) by sacrificing all mice at time point 120 min post injection. Blood, tumour, and major organs and tissues were collected, wet-weighed, and counted using an automated y-counter (Wallac 1282 CompuGamma g counter). The concentrations of radioactivity in blood, tumor, and organs and tissues were determined as percentage injected of total radioactivity per gram (% ID/g).

[2] = test system: SKOV3-TRip2 and SKOV3-ip1 subcutaneous tumours; test: In vivo tumour model and PET imaging; design: species or system Balb/c nu/nu mice
Method: All animal experiments were performed in accordance with the United Kingdom Home Office Animal (scientific procedures) Act […]. […] SKOV3-ip1 and 4×10^6 and SKOV3-TRip2 cells were injected subcutaneously into female Balb/c nu/nu mice aged 6-9 weeks (Charles River Laboratories). Tumour dimensions were measured using an electronic calliper and the volume calculated using the following equation: volume=((π/6)×h×w×l), where h, w and l represent, height, width, and length, respectively. Imaging studies took place when tumour size reached approximately 150-250 mm^3. Mice were anaesthetized with isoflurane (2.5% in oxygen) and maintained at 37° C. using an air-heated scanning bed. A tail vein cannula was inserted and a 3.7 MBq bolus of PQM-H-001 was administered in approximately 100 μL of PBS. Immediately following injection, 120 min PET acquisition was performed on a Mediso nanoScan PET/CT system. […] Reconstructed images (Tera-Tomo 3D reconstruction algorithm; 4 iterations; 6 subsets; 400-600 keV; 0.4 mm voxel size) were analysed using VivoQuant software (v. 2.5, Invicro Ltd.). Regions of interest (ROIs) were drawn manually on the CT images and the radioactivity concentration in each ROI expressed as a percentage of the injected dose per mL of tissue volume (% ID/mL).

SKOV3-ip1 cells = test: Cisplatin-induced growth inhibition, MTT assay, SKOV3-ip1; format: cell-based, human; details: MTT assay 72 h post treatment; second value of 'respectively' pair (SKOV3-ip1 as printed)
Method: FIG. 1a: Graph showing cisplatin-induced growth inhibition in SKOV3-ip1 cells (white circles) and SKOV3-TRip2 cells (filled squares) using an MTT assay 72 h post treatment (n=3-5).
The SKOV3-TRip2 cell line was generated through progressive exposure to paclitaxel (Duan et al., 1999) whereas the SKOV3-ip1 cell line remained untreated.

Compound	Radiotracer retention, drug resistant versus drug-sensitive cells [1] [times higher]	radiotracer retention in drug-resistant vs drug-sensitive tumours (in words) (Ex vivo biodistribution)	radiotracer retention in healthy tissues (in words) (Ex vivo biodistribution)	route of excretion (in words) (Ex vivo biodistribution)	Retention in treatment resistant SKOV3-TRip2 tumours compared to SKOV3-ip1 tumours ([2]; PET, subcutaneous tumours, 3.7 MBq i.v. bolus) [×]	identification of drug resistant tumours in vivo (in words) ([2]; PET/CT imaging)	EC50 (SKOV3-ip1 cells) [nM]
CS(=O)(=O)N1CCN(C(=O)c2cnc3ccc([18F])cc3c2-c2ccc(C3(C#N)CC3)cc2)CC1 [PQM-H-001, 1-(4-(6-(fluoro-^18F)-3-(4-(methylsulfonyl)piperazine-1-carbonyl)quinolin-4-yl)phenyl)cyclopropane-1-carbonitrile]	9	substantially increased in the drug-resistant tumours compared to drug-sensitive tumours	Low radiotracer retention was observed in most healthy tissues, except the liver	excretion occurring via the urinary and hepatobiliary tract	> 5	can non-invasively identify drug resistant tumours in vivo	–
N.N.[Cl][Pt][Cl] [cisplatin]	–	–	–	–	–	–	2600
